# Measured values: patent publication US6489119B1, “Analgesic screening method and composition” (priority 1996, dated 2002)
# Experiments:
# TTXi Na channels [1] = target: TTXi Na channels (Rattus norvegicus, UniProt Q62968); test: Whole-cell electrophysiological assay of TTXi Na currents in capsaicin-sensitive DRG neurons; assay type: cell-based, Sprague-Dawley rat; details: DRG neuron; 400 μM, depolarizing steps from holding potential −80 mV; read-out: block of TTXi Na current
# Text: (§1) . Using a voltage paradigm during which a pair of depolarizing steps to −10 mV are separated by a 4 ms repolarizing step, greater than 90% of TTXs Na currents remain inactivated (FIG. 2B, see below). FIGS. 2C and 2D present voltage families of the TTXi (rapidly recovering Na current) and TTXs (slowly recovering Na current), respectively, generated using this paired-pulse paradigm. TTXs currents (FIG. 2D) were generated by subtracting Na currents obtained following a prepulse to −10 mV from those obtained without a prepulse. The fraction of the total Na current carried by the fast-recovering, TTXi, Na channel varied from cell to cell (generally from 70-90% of Na current is carried by a TTXi conductance in capsaicin-sensitive DRGs). […].
# (§2) FIG. 4 presents Na currents obtained before and after exposure of cells to solutions containing 50, 100, 200, 500 and 1000 μM SNX-483 in a capsaicin-sensitive DRG neuron (PAN). […] In the experiments presented in FIG. 4, the capsaicin-sensitive neuron was held at −55 mV and stepped twice to −10 mV at 10 second intervals. Similar results have been obtained in every capsaicin-sensitive PAN tested (n=7). Only about 7% of the TTXi Na current that was blocked by 400 μM SNX-483 recovered within 15 minutes of continuously exchanging the recording chamber with fresh extracellular solution. […]
# TTXi Na channels [2] = test: as above; assay type: cell-based, Sprague-Dawley rat; details: membrane potential −55 mV
# Text: as §1, §2
# TTXs Na channels = test: Whole-cell electrophysiological assay of TTXs Na currents in DRG neurons; assay type: cell-based, Sprague-Dawley rat
# Text: FIG. 7 illustrates that at a membrane potential of −55 mV, SNX-483 more potently blocks TTXi Na currents than TTXs Na currents. In experiments carried out in support of the present invention, DRGs containing predominantly TTXi Na currents and TTXs currents were superfused sequentially with increasing concentrations of SNX-483. […]
# 10-20 day old Sprague-Dawley rat pups were euthanized using CO2 or decapitation. Dorsal root ganglia were removed and placed in Dulbecco s Minimum Essential Medium supplemented with 10% (v/v) fetal bovine serum (DMEM). Ganglia were then cut into small pieces and transferred to DMEM containing 2 mg/ml collagenase and incubated for 30 minutes in a 37° C. incubator with 5% CO2 atmosphere. After 15 minutes incubation, the pieces were gently triturated by three passages through a glass capillary pulled to 0.2 mm i.d. The collagenase was then removed by three washes in 10 ml of DMEM. The final resuspension was into DMEM supplemented with 50 ng/ml NGF, 50 I.U./ml penicillin and […] streptomycin. Cells were then transferred onto glass coverslips coated with collagen and placed in a 37° C. incubator as above. […]
# TTXs sodium currents can be measured in large DRG neurons or in other cells or cell lines lacking TTXi Na channels. […]
# N-type Ca channel = target: T1, N-type Ca channel (Homo sapiens, UniProt Q00975); test: Fluorometric Ca flux in INDO1-loaded IMR32 cells; assay type: cell-based; details: concentrations exceeding 300 AM (highest concentration tested)
# T1 construct: endogenous in cells; host or cells: IMR32 cells
# Protocol: (§3) In parallel experiments, SNX-483 was tested for its ability to block voltage-dependent calcium (Ca) and voltage-dependent potassium (K) channels. N- and L-type Ca channel-mediated Ca fluxes were measured fluorometrically using INDO1—loaded IMR32 and GH3 cells, respectively. At concentrations exceeding […] (the highest concentration tested), SNX-483 had no effect on either type of Ca flux.
# L-type Ca channel = test: Fluorometric Ca flux in INDO1-loaded GH3 cells; assay type: cell-based; details: concentrations exceeding 300 AM (highest concentration tested)
# Protocol: as §3
# Kv1.1 K channel = target: T2, Kv1.1 K channel (Homo sapiens, UniProt Q09470); test: K currents of Shaker subfamily channels expressed in xenopus oocytes; assay type: cell-based; details: concentrations up to 1 μM
# T2 construct: expressed in transfected cells; host or cells: Xenopus oocytes
# Protocol: (§4) In addition, SNX-483 was evaluated for the ability to inhibit members of the Shaker subfamily of voltage-dependent K channels expressed in xenopus oocytes. At concentrations up to 1 μM, SNX-483 had no effect on K currents mediated by Kv1.1, Kv1.2, Kv1.3 or Kv1.4 K channels.
# Kv1.2 K channel = target: T3, Kv1.2 K channel (Homo sapiens, UniProt P16389); test: as above; assay type: cell-based; details: concentrations up to 1 μM
# T3 construct: expressed in transfected cells; host or cells: Xenopus oocytes
# Protocol: as §4
# Kv1.3 K channel = target: T4, Kv1.3 K channel (Homo sapiens, UniProt P22001); test: as above; assay type: cell-based; details: concentrations up to 1 μM
# T4 construct: expressed in transfected cells; host or cells: Xenopus oocytes
# Protocol: as §4
# Kv1.4 K channel = target: T5, Kv1.4 K channel (Homo sapiens, UniProt P22459); test: as above; assay type: cell-based; details: concentrations up to 1 μM
# T5 construct: expressed in transfected cells; host or cells: Xenopus oocytes
# Protocol: as §4
# T1 sequence (Q00975 whole entry): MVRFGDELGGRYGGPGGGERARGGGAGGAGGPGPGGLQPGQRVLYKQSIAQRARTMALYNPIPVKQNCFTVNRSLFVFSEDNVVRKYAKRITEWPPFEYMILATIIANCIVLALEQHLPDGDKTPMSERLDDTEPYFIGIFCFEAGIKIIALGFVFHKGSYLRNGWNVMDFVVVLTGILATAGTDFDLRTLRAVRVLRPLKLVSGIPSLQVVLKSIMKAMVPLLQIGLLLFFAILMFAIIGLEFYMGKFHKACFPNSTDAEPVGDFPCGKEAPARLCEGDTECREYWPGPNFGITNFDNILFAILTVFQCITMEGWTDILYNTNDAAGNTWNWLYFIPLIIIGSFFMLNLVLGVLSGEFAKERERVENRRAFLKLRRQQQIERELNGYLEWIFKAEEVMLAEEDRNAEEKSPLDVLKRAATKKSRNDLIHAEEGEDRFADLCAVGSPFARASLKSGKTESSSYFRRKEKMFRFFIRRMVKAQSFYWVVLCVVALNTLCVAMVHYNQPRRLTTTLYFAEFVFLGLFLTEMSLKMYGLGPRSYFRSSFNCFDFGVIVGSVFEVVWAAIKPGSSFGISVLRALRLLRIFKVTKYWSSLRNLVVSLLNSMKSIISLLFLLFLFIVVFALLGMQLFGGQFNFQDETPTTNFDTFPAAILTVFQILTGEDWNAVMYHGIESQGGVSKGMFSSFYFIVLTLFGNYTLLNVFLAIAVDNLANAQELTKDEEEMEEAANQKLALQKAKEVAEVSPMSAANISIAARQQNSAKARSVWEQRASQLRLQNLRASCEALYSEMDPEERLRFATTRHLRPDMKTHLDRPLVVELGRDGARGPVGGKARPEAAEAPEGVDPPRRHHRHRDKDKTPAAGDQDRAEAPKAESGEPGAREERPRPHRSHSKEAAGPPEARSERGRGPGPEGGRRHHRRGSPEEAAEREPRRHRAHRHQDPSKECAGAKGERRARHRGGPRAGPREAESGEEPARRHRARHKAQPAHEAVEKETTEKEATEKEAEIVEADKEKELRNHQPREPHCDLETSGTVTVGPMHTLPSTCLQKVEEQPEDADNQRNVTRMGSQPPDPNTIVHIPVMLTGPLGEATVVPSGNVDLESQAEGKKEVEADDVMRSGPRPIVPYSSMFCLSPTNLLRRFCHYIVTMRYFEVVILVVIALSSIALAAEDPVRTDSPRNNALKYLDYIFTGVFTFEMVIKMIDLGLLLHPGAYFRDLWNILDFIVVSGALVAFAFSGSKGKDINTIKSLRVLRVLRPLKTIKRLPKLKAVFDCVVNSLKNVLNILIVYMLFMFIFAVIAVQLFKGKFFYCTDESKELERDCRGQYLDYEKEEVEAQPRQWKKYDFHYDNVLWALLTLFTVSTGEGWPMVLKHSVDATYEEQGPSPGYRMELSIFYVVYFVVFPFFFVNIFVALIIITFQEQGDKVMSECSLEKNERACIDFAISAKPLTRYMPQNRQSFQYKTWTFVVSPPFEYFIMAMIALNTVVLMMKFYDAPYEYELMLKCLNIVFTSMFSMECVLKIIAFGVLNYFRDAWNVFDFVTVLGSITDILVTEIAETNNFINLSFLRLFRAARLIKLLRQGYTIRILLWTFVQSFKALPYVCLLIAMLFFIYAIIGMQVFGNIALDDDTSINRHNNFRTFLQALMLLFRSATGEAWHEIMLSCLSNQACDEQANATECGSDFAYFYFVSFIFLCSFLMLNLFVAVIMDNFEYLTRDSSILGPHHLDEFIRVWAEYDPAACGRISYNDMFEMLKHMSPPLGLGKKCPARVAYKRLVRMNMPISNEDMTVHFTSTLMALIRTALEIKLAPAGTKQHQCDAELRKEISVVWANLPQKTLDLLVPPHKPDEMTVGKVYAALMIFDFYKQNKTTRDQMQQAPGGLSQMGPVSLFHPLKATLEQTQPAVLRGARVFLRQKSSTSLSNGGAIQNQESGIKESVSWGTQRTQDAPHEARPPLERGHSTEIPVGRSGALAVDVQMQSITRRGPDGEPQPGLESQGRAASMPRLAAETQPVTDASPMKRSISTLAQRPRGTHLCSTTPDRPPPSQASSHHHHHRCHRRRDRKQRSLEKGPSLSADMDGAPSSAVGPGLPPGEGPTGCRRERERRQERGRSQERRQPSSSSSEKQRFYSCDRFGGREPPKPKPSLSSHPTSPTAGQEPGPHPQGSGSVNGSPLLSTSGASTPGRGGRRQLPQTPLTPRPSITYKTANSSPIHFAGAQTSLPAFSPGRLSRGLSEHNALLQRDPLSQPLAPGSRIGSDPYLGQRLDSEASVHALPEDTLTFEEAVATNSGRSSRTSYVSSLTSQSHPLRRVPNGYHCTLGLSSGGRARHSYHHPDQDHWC
# T1 sequence (P54289 957-1103, further chain): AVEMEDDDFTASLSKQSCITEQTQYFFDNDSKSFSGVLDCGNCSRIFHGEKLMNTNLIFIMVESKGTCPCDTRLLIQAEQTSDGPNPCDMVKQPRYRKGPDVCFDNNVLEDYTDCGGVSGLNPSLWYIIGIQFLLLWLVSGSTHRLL
# T1 sequence (P54284 whole entry, further chain): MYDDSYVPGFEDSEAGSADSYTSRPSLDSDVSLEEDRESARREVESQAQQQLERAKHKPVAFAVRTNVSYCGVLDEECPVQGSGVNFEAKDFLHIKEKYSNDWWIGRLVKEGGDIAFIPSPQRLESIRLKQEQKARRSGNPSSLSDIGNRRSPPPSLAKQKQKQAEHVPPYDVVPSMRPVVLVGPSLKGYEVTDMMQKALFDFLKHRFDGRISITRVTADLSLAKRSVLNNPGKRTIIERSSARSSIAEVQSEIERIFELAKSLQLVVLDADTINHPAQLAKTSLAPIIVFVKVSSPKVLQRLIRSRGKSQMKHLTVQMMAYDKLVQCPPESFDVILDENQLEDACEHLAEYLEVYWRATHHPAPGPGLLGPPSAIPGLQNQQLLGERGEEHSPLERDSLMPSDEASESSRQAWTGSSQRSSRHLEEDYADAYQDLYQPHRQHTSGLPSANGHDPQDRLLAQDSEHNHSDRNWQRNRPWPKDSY
# T1 sequence (P54289 25-956, further chain): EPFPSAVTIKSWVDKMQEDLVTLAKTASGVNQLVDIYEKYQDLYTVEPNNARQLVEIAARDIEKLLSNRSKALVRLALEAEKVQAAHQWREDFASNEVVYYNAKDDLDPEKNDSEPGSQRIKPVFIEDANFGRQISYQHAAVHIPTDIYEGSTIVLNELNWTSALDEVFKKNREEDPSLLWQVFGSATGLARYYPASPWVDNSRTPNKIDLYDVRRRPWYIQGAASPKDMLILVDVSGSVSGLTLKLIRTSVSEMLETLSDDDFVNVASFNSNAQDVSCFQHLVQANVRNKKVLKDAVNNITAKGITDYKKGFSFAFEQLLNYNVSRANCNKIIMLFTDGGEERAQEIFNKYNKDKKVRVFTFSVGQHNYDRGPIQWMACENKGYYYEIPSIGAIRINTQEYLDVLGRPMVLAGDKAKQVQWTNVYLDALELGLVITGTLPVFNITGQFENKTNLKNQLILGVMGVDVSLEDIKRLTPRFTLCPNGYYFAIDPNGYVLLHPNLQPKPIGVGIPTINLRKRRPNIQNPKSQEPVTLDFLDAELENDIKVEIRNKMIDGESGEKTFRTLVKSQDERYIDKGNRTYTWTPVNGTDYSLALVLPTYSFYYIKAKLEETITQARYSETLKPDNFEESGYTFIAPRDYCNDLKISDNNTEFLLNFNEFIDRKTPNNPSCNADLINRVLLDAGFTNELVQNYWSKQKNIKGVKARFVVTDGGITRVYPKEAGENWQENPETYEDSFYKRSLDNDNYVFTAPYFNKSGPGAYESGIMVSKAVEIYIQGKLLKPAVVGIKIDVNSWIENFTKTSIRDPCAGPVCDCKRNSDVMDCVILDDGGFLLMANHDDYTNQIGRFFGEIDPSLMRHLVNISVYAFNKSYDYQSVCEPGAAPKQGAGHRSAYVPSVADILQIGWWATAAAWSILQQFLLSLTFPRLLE
# T3 sequence (P16389 whole entry): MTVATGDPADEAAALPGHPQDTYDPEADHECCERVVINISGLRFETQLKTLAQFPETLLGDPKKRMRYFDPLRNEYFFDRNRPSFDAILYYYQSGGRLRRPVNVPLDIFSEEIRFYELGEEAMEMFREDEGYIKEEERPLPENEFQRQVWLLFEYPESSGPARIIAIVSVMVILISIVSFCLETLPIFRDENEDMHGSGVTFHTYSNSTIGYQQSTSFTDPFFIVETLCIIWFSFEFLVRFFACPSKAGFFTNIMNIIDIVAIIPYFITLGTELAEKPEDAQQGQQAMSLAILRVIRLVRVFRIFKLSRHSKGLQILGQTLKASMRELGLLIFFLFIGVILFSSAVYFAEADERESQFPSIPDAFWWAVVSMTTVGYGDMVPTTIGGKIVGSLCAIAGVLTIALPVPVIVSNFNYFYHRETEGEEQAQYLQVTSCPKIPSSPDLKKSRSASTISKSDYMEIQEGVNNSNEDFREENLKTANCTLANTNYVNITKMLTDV
# T5 sequence (P22459 whole entry): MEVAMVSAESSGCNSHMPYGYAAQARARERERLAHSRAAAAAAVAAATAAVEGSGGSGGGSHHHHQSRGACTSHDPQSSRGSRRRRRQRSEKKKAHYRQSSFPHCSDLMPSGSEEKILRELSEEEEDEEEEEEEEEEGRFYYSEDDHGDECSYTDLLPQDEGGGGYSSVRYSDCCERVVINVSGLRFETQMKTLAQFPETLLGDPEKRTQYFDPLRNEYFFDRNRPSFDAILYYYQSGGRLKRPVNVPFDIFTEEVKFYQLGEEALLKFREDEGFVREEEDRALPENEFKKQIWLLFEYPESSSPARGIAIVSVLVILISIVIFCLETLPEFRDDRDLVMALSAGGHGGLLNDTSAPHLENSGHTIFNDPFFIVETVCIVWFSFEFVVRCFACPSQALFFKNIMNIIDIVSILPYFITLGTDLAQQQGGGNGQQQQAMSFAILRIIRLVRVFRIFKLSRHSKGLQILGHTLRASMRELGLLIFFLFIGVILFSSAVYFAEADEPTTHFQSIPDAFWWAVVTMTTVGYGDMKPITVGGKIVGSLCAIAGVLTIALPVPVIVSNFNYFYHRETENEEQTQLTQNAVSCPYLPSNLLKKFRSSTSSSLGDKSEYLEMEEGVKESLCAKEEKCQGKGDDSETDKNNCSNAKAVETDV
structure (smiles),measurement,setting,value
"CCNCC(=O)Nc1c(C)ccc(O)c1C [SNX-483, 2-(ethylamino)-N-(3-hydroxy-2,6-dimethylphenyl) acetamide]",inhibition at 400 µM,TTXi Na channels [1],20%
same,"Potency ratio 1/(IC50, TTXi/IC50, TTXs)",TTXi Na channels [2],3.1
same,block of TTXs Na currents,"TTXs Na channels; 400 μM, large capsaicin-insensitive DRG clamped at −55 mV, 16 ms repolarizing step",does not block
same,IC50,TTXs Na channels; membrane potential −55 mV,222 ± 12 µM
same,effect on N-type Ca channel-mediated Ca flux,N-type Ca channel,no effect
same,effect on L-type Ca channel-mediated Ca flux,L-type Ca channel,no effect
same,effect on K currents mediated by Kv1.1,Kv1.1 K channel,no effect
same,effect on K currents mediated by Kv1.2,Kv1.2 K channel,no effect
same,effect on K currents mediated by Kv1.3,Kv1.3 K channel,no effect
same,effect on K currents mediated by Kv1.4,Kv1.4 K channel,no effect
